Assay results: US9617517B2, “Small chemical compound which promotes induction of differentiation of stem cells into insulin-producing cells and method for inducing differentiation of stem cells into insulin-producing cells using said small chemical compound” (NATIONAL UNIVERSITY CORPORATION KUMAMOTO UNIVERSITY, priority 2011, dated 2017)
Entries after “also recorded” stand apart in the source; their conditions may differ.

Columns and labels:
[1] = test system: mouse ES cells (Pdx1/GFP); assay: Differentiation of mouse ES cells into insulin positive cells on nano fiber plate, immunostaining and quantitative image analysis; type: cell-based; conditions: for effect on differentiation into insulin-expressing cells: compound added d11-d17, insulin staining d17 (FIG. 4, 5, 7, 8, 10)
From the text: Two ES cell lines, one expressing green fluorescent protein (GFP) under the control of insulin 1 promoter, designed ING (Higuchi Y., Shiraki N., Yamane K, Qin Z., Mochitate K., Araki K., Senokuchi K., Yamagata K., Hara M., Kume K., and Kume S., Synthesized basement membranes direct the differentiation of mouse embryonic stem cells into pancreatic lineages. J. Cell Science, 123, 2733-2742, 2010), and the other one expressing GFP under the control of Pdx1 promoter, designated SK7 (Shiraki N, Yoshida T, Araki K, et al. Guided differentiation of embryonic stem cells into Pdx1-expressing regional-specific definitive endoderm. Stem Cells. 2008; 26:874-885), were used. Both cell lines were maintained on mouse embryonic fibroblast (MEF) feeders in Glasgow minimum essential medium (Invitrogen) containing 1000 units/ml leukemia inhibitory factor (LIF; Chemicon), 15% Knocked-out Serum Replacement (KSR; Gibco), 1% fetal bovine serum (FBS; Hyclone), 100 μM nonessential amino acids (NEAA; Invitrogen), 2 mM L-glutamine (L-Gln; Invitrogen), 1 mM sodium pyruvate (Invitrogen), 50 units/ml penicillin and 50 μg/ml streptomycin (PS; Invitrogen) and 100 μM β-mercaptoethanol (β-ME; Sigma), as ES maintenance medium.
For the differentiation studies, ES cells were plated at 5,000 cells per well in Corning 96 well plate with Ultra-Web Synthetic Polyamine Surface (#3873XX1, Corning Coster, Cambridge, Miss.), and cultured. The cells were cultured in Dulbecco's Modified Eagle Medium (DMEM: Invitrogen, Glasgow, UK) containing 4500 mg/L glucose, supplemented with NEAA, L-Gln, PS, β-ME, 10 μg/ml insulin (Sigma-Aldrich), 5.5 μg/ml transferrin (Sigma-Aldrich), 6.7 pg/ml selenium (Sigma-Aldrich), and 0.25% Albmax (Invitrogen), 10 ng/mL recombinant human activin-A (R&D Systems, Minneapolis, Minn.), 5 ng/mL; recombinant human bFGF for 7 days (d1-d7) (I of FIG. 1). And then, the medium was changed to RPMI 1640 medium (Invitrogen) containing 2000 mg/L glucose (Sigma, St Louis, Mo.), 1 μM Retinoic acid (Sigma-Aldrich), 50 ng/ml Human Recombinant Fibroblast Growth Factor-10 (Peprotech, Rocky Hill, N.J.), B27 SUPPLEMENT (Invitrogen) and 0.25 μM 3-Keto-N-(aminoethyl-aminocaproyl-dihydrocinnamoyl) cyclopamine Shh Signaling Antagonist II (Calbiochem, San Diego, Calif.) on d7 to d11 (II of FIG. 1). Finally, the medium was switched to DMEM containing 1000 mg/L glucose supplemented with NEAA, L-Gln, PS, β-ME, 10 μg/ml insulin (Sigma-Aldrich), 5.5 μg/ml transferrin (Sigma-Aldrich), 6.7 pg/ml selenium (Sigma-Aldrich), 0.25% Albmax (Invitrogen) and 10 mM nicotinamide (Sigma-Aldrich) on d11 to d17 (III of FIG. 1). Media were replaced every 2 days with fresh medium and growth factors until d17.
All tested small chemical compounds were solved in dimethyl sulfoxide (DMSO) at given concentration. Compounds were added on d11, d13 and d15 in a medium. Final concentration of DMSO was adjusted at 1.0% in all experiments for compounds.
After 17 days cell culture, cultured ES cells were fixed in 4% paraformaldehyde in PBS for 30 min at room temperature, and rinsed several times with PBS. Then, cells were incubated in the added diluted primary antibody in 20% Blocking One (Nacalai tesque, Tokyo, Japan) in PEST (0.1% Tween-20 in PBS) in a humidified chamber for overnight at 4° C. After washing the cells in PBST, cells were incubated with the secondary antibody in 20% Blocking One for 2 hr at room temperature in dark. After washing off the secondary antibody in PBST, cells were counterstained with […] (DAPI) (Roche Diagnostics). The following antibodies were used as First antibodies: Rabbit anti-GFP (MBL International Corp., Woburn, Mass.), Mouse anti-Insulin (Sigma). The following antibodies were used as Secondary antibodies: Alexa 568-conjugated, Alexa 488-conjugated antibodies (Invitrogen) Cells were counterstained with DAPI (Roche Diagnotics, Basel, Switzerland).

[2] = test system: Drd2KD cells; assay: Differentiation into insulin-producing cells in dopamine D2 receptor knock-down cell line; type: cell-based, mouse; conditions: 0.63 μM reserpine, Drd2KD cells (FIG. 9B)
Method: In the Vmat2-knockdown and Drd2-knockdown assays, Expression Arrest non-silencing control shRNA (Open Biosystems, #RHS4080), Vmat2 hRNA (Open Biosystems, #RMM3981-97058457 and #RMM3981-97058458) or Drd2 hRNA (Open Biosystems, #RMM3981-9594258) lentiviral vectors were used. For virus preparation, HEK293-FT cells (Invitrogen) were seeded on a plate medium the day before transfection. After overnight culture, the cells were transfected with lentiviral vectors and ViraPower™ Lentiviral Packaging Mix (Invitrogen) using FuGENE6 Transfection Reagent (Roche) according to the manufacturer's protocol. Cells were incubated in the ES maintenance medium for 24 hours, and viral supernatants were collected. Then, SK7 cells were infected with the viral supernatants. After incubation for 24 hours, the virus-containing medium was replaced with fresh ES maintenance medium. Further 24 hours later, the infected cells were selected using […] puromycin. The surviving cells were cloned as a knockdown-cell lines.
To confirm that a dopamine signal suppresses the differentiation into insulin-expressing cells through activation of its receptor, a dopamine D2 receptor knock-down cell line, Drd2KD was established (FIG. 9A).

COC(=O)[C@H]1[C@H]2C[C@@H]3c4[nH]c5cc(OC)ccc5c4CCN3C[C@H]2C[C@@H](OC(=O)c2cc(OC)c(OC)c(OC)c2)[C@@H]1OC [Reserpine, reserpine]
hit confirmed by dose-responsiveness ([1]; 0.08 to 10 μM, SK7 ES cells): positive | effect on differentiation into insulin-expressing cells [1]: enhanced insulin-positive staining; also recorded: increased insulin-producing cells | effect on differentiation into insulin-expressing cells ([1]; listed as reserpine): concentration-dependent effect was observed | concentration of maximum effect on insulin positive cells ([1]; concentration-dependent test at 0 to 10 μM (FIG. 4)): 0.63 µM | effect on Pdx1 positive pancreatic precursor cells ([1]; reserpine 0.63 μM, Pargyline 1 μM (FIG. 6, 7)): did not change the number of pancreatic precursor cells | promotion of differentiation into insulin-producing cells [2]: did not promote differentiation
